For experiment [1], the target named is hNAMPT protein (Homo sapiens (Human), UniProt P43490). Kind of experiment: NAMPT enzyme assay (TR-FRET/HTRF, BodiPY ligand, anti 6His-Tb). Particulars: for inhibition at 1 µM: NAMPT inhibition at compound concentration 1 μM, read-out: Percent Inhibition; for IC50: NAMPT inhibition, IC50 range class, read-out: IC50. In kind it is binding. Summed up: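 TR-FRET binding assay in which His-tagged human NAMPT with anti-6His-Tb is displaced by compound from a BodiPY ligand, incubated 1 h at rt in the dark. Excitation was at 320 nm, with the 520/486 nm emission ratio read. IC50 was fitted from inhibition relative to DMSO controls.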
A general note: In TR-FRET formats the signal depends on donor and acceptor labels being close together.

Experiment [2] relates to PC3 cells. The experiment can be described thus: PC3 growth inhibition (Cell-titer glo, 72 hours). The format is cell-based. As to conditions: Homo sapiens, PC-3; compound concentration 1.667 μM; PC3 cells, 72 hours, Cell-titer glo; read-out: Percent Inhibition (PC3 growth inhibition). The method in brief:
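PC3 cells in RPMI1640 seeded overnight at 37 °C, 5% CO2, then exposed to compound diluted in AIM serum-free medium for 72 h. Viability by CellTiter-Glo luminescence vs DMSO controls; single-concentration % remaining viability (1 μM or 1.667 μM), or GI50/LD50 from curves.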

By inhibition is commonly meant the share of the control response that was lost under treatment. As usually defined, the IC50 is the point on the concentration scale where inhibition reaches its midpoint.

Chain of hNAMPT protein (P43490 whole entry): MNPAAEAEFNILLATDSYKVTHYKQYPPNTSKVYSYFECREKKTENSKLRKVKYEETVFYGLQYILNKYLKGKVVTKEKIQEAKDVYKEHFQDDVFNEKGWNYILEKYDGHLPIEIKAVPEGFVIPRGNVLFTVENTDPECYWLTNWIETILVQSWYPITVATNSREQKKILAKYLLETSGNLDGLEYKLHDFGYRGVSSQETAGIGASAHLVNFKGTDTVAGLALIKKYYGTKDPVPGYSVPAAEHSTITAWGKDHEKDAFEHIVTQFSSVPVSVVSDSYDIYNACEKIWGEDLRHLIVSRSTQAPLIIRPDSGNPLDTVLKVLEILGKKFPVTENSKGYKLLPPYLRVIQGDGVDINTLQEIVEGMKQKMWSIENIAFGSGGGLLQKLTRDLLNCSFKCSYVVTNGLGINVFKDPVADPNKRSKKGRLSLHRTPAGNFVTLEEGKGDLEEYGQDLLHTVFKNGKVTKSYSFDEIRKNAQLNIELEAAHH

Regarding `O=C(NCCCc1ncc[nH]1)c1ccc2nc(-c3ccc(Cl)s3)c(-c3ccc(F)cc3)nc2c1` [Compound I-483, 2-(5-chloro-2-thienyl)-3-(4-fluorophenyl)-N-[3-(1H-imidazol-2-yl)propyl]quinoxaline-6-carboxamide], in experiment [1], the inhibition at 1 µM is 77% and the IC50 lay in the range of 100 to 500 nM. For the same compound, in experiment [2], the inhibition at 1.667 µM came to 2%.

In the case of `COc1cccc(-c2nc3cc(C(=O)NCCCc4ncc[nH]4)ccc3nc2-c2ccc(F)cc2)c1` [Compound I-484, 2-(4-fluorophenyl)-N-[3-(1H-imidazol-2-yl)propyl]-3-(3-methoxyphenyl)quinoxaline-6-carboxamide], in experiment [1], the inhibition at 1 µM is 99% and the IC50 is less than 100 nM. Besides, in experiment [2], the inhibition at 1.667 µM stood at 2%.

Take `C[C@@H]1CN(c2nc3ccc(C(=O)NCCCc4ccc(N)nc4)cc3nc2-c2ccc(F)cc2)C[C@H](C)O1` [Compound I-485, N-[3-(6-aminopyridin-3-yl)propyl]-2-[cis-2,6-dimethylmorpholin-4-yl]-3-(4-fluorophenyl)quinoxaline-6-carboxamide]: in experiment [1], the inhibition at 1 µM was determined as 96% and the IC50 was less than 100 nM. In experiment [2], the inhibition at 1.667 µM was found to be 2%.

With `Cc1ccc(-c2nc3cc(C(=O)NCCCc4ncc[nH]4)ccc3nc2-c2ccc(F)cc2)cn1` [Compound I-486, 2-(4-fluorophenyl)-N-[3-(1H-imidazol-2-yl)propyl]-3-(6-methylpyridin-3-yl)quinoxaline-6-carboxamide], in experiment [1], the inhibition at 1 µM was 78% and the IC50 lay within 100 to 500 nM. The inhibition at 1.667 µM in experiment [2] was 2%.

For the compound `O=C(NCc1ccc2nccn2c1)c1ccc2nc(-c3ccc(Cl)cc3)c(-c3ccc(Cl)cc3)nc2c1` [Compound I-487, 2,3-bis(4-chlorophenyl)-N-(imidazo[1,2-a]pyridin-6-ylmethyl)quinoxaline-6-carboxamide], in experiment [1], the inhibition at 1 µM is 70% and the IC50 fell in the range of 100 to 500 nM. Also, the inhibition at 1.667 µM in experiment [2] is 1%.

As for `COc1cc(-c2nc3cc(C(=O)NCCCc4ncc[nH]4)ccc3nc2-c2ccc(F)cc2)ccc1F` [Compound I-488, 3-(4-fluoro-3-methoxyphenyl)-2-(4-fluorophenyl)-N-[3-(1H-imidazol-2-yl)propyl]quinoxaline-6-carboxamide], in experiment [1], the inhibition at 1 µM was 98% and the IC50 is less than 100 nM. The inhibition at 1.667 µM in experiment [2] is 2%.

Take `O=C(NCCCc1ncc[nH]1)c1ccc2nc(OCCc3ccccn3)c(-c3ccc(F)cc3)nc2c1` [Compound I-489, 3-(4-fluorophenyl)-N-[3-(1H-imidazol-2-yl)propyl]-2-[2-(pyridin-2-yl)ethoxy]quinoxaline-6-carboxamide]: in experiment [1], the inhibition at 1 µM is more than 99% and the IC50 was less than 100 nM. For the same compound, the inhibition at 1.667 µM in experiment [2] is 2%.

As to `O=C(NCCCc1ncc[nH]1)c1ccc2nc(OCC3CC3)c(-c3ccc(F)cc3)nc2c1` [Compound I-490, 2-(cyclopropylmethoxy)-3-(4-fluorophenyl)-N-[3-(1H-imidazol-2-yl)propyl]quinoxaline-6-carboxamide], in experiment [1], the inhibition at 1 µM came out at 95% and the IC50 was less than 100 nM. In addition, the inhibition at 1.667 µM in experiment [2] amounted to 2%.

Regarding `CC(C)Oc1nc2cc(F)c(C(=O)NCCCc3ncc[nH]3)cc2nc1-c1ccc(F)cc1` [Compound I-491, N-(3-(1H-imidazol-2-yl)propyl)-7-fluoro-3-(4-fluorophenyl)-2-isopropoxyquinoxaline-6-carboxamide], in experiment [1], the inhibition at 1 µM was determined as 83% and the IC50 is 100 to 500 nM. Moreover, in experiment [2], the inhibition at 1.667 µM is 4%.

As for `COc1ccc(F)c(-c2nc3cc(C(=O)NCCCc4ncc[nH]4)ccc3nc2OC(C)C)c1` [Compound I-492, 3-(2-fluoro-5-methoxyphenyl)-N-[3-(1H-imidazol-2-yl)propyl]-2-isopropoxyquinoxaline-6-carboxamide], in experiment [1], the inhibition at 1 µM was 94% and the IC50 was less than 100 nM. Besides, the inhibition at 1.667 µM in experiment [2] stood at 3%.

The values are drawn from US10144742B2 (Millennium Pharmaceuticals, Inc., priority 2014, dated 2018).
